From PubChem BioAssay (NCI)
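Exposure lasted 48 hours, with cells grown in 96-well plates and compounds tested at five concentrations. At the TGI there is no net growth.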

Assays:
Assay in all cases: inhibition of tumour cell growth, NCI panel, 48 h
TK-10 renal = test system: TK-10 renal
HCC-2998 colon = test system: HCC-2998 colon
HOP-62 NSCLC = test system: HOP-62 NSCLC
DMS 114 small cell lung = test system: DMS 114 small cell lung
LXFL 529 NSCLC = test system: LXFL 529 NSCLC
NCI-H23 lung = test system: NCI-H23 lung
UACC-62 melanoma = test system: UACC-62 melanoma
A498 renal = test system: A498 renal
KM20L2 colon = test system: KM20L2 colon
XF 498 CNS = test system: XF 498 CNS
OVCAR-8 ovarian = test system: OVCAR-8 ovarian
U251 CNS = test system: U251 CNS
LOX IMVI melanoma = test system: LOX IMVI melanoma
OVCAR-4 ovarian = test system: OVCAR-4 ovarian
DMS 273 small cell lung = test system: DMS 273 small cell lung
SNB-19 CNS = test system: SNB-19 CNS
CCRF-CEM leukemia = test system: CCRF-CEM leukemia
UO-31 renal = test system: UO-31 renal
SW-620 colon = test system: SW-620 colon
KM12 colon = test system: KM12 colon
M14 melanoma = test system: M14 melanoma
M19-MEL melanoma = test system: M19-MEL melanoma
A549 NSCLC = test system: A549 NSCLC
SF-539 CNS = test system: SF-539 CNS
NCI-H522 lung = test system: NCI-H522 lung
COLO 205 colon = test system: COLO 205 colon
CAKI-1 renal = test system: CAKI-1 renal
K-562 leukemia = test system: K-562 leukemia
NCI-H226 lung = test system: NCI-H226 lung
UACC-257 melanoma = test system: UACC-257 melanoma
SNB-75 CNS = test system: SNB-75 CNS
RXF 393 renal = test system: RXF 393 renal
RXF-631 renal = test system: RXF-631 renal
SK-MEL-2 melanoma = test system: SK-MEL-2 melanoma
SK-MEL-5 melanoma = test system: SK-MEL-5 melanoma
SR leukemia = test system: SR leukemia
HL-60(TB) leukemia = test system: HL-60(TB) leukemia
RPMI-8226 leukemia = test system: RPMI-8226 leukemia
SF-295 CNS = test system: SF-295 CNS
IGROV1 ovarian = test system: IGROV1 ovarian
EKVX NSCLC = test system: EKVX NSCLC
HT29 colon = test system: HT29 colon
786-0 renal = test system: 786-0 renal
DLD-1 colon = test system: DLD-1 colon
SN12C renal = test system: SN12C renal
SF-268 CNS = test system: SF-268 CNS
HCT-116 colon = test system: HCT-116 colon
MALME-3M melanoma = test system: MALME-3M melanoma
HCT-15 colon = test system: HCT-15 colon
MOLT-4 leukemia = test system: MOLT-4 leukemia
ACHN renal = test system: ACHN renal
HOP-92 NSCLC = test system: HOP-92 NSCLC
OVCAR-5 ovarian = test system: OVCAR-5 ovarian
SK-OV-3 ovarian = test system: SK-OV-3 ovarian
NCI/ADR-RES ovarian = test system: NCI/ADR-RES ovarian
DU-145 prostate = test system: DU-145 prostate
PC-3 prostate = test system: PC-3 prostate
SK-MEL-28 melanoma = test system: SK-MEL-28 melanoma
OVCAR-3 ovarian = test system: OVCAR-3 ovarian
HS 578T breast = test system: HS 578T breast
MCF7 breast = test system: MCF7 breast
MDA-MB-435 = test system: MDA-MB-435
BT-549 breast = test system: BT-549 breast
NCI-H460 lung = test system: NCI-H460 lung
MDA-N = test system: MDA-N
MDA-MB-231 breast = test system: MDA-MB-231 breast
T-47D breast = test system: T-47D breast
SNB-78 CNS = test system: SNB-78 CNS

CNS(=O)(=O)NN(C)S(=O)(=O)c1ccc(OC)cc1
TGI (TK-10 renal): > 100 µM | TGI (HCC-2998 colon): > 100 µM | TGI (HOP-62 NSCLC): > 100 µM | TGI (DMS 114 small cell lung): > 100 µM | TGI (LXFL 529 NSCLC): > 100 µM | TGI (NCI-H23 lung): > 100 µM | TGI (UACC-62 melanoma): > 100 µM | TGI (A498 renal): > 100 µM | TGI (KM20L2 colon): > 100 µM | TGI (XF 498 CNS): > 100 µM | TGI (OVCAR-8 ovarian): > 100 µM | TGI (U251 CNS): > 100 µM | TGI (LOX IMVI melanoma): > 100 µM | TGI (OVCAR-4 ovarian): > 100 µM | TGI (DMS 273 small cell lung): > 100 µM | TGI (SNB-19 CNS): > 100 µM | TGI (CCRF-CEM leukemia): > 100 µM | TGI (UO-31 renal): > 100 µM | TGI (SW-620 colon): > 100 µM | TGI (KM12 colon): > 100 µM | TGI (M14 melanoma): > 100 µM | TGI (M19-MEL melanoma): > 100 µM | TGI (A549 NSCLC): > 100 µM | TGI (SF-539 CNS): > 100 µM | TGI (NCI-H522 lung): > 100 µM | TGI (COLO 205 colon): > 100 µM | TGI (CAKI-1 renal): > 100 µM | TGI (K-562 leukemia): > 100 µM | TGI (NCI-H226 lung): > 100 µM | TGI (UACC-257 melanoma): > 100 µM | TGI (SNB-75 CNS): > 100 µM | TGI (RXF 393 renal): > 100 µM | TGI (RXF-631 renal): > 100 µM | TGI (SK-MEL-2 melanoma): > 100 µM | TGI (SK-MEL-5 melanoma): > 100 µM | TGI (SR leukemia): > 100 µM | TGI (HL-60(TB) leukemia): > 100 µM | TGI (RPMI-8226 leukemia): > 100 µM | TGI (SF-295 CNS): > 100 µM | TGI (IGROV1 ovarian): > 100 µM | TGI (EKVX NSCLC): > 100 µM | TGI (HT29 colon): > 100 µM | TGI (786-0 renal): > 100 µM | TGI (DLD-1 colon): > 100 µM | TGI (SN12C renal): > 100 µM | TGI (SF-268 CNS): > 100 µM | TGI (HCT-116 colon): > 100 µM | TGI (MALME-3M melanoma): > 100 µM | TGI (HCT-15 colon): > 100 µM | TGI (MOLT-4 leukemia): > 100 µM | TGI (ACHN renal): > 100 µM

CC1c2ccccc2Cn2cc3c(c21)C(=O)c1cccc(OP(=O)(O)OCc2ccccc2)c1C3=O (stereo not drawn)
TGI (TK-10 renal): > 100 µM | TGI (HCC-2998 colon): > 100 µM | TGI (HOP-92 NSCLC): > 100 µM | TGI (OVCAR-5 ovarian): > 100 µM | TGI (HOP-62 NSCLC): > 100 µM | TGI (SK-OV-3 ovarian): > 100 µM | TGI (DMS 114 small cell lung): > 100 µM | TGI (LXFL 529 NSCLC): > 100 µM | TGI (NCI/ADR-RES ovarian): > 100 µM | TGI (DU-145 prostate): > 100 µM | TGI (NCI-H23 lung): > 100 µM | TGI (PC-3 prostate): > 100 µM | TGI (UACC-62 melanoma): > 100 µM | TGI (A498 renal): > 100 µM | TGI (KM20L2 colon): > 100 µM | TGI (XF 498 CNS): > 100 µM | TGI (OVCAR-8 ovarian): > 100 µM | TGI (SK-MEL-28 melanoma): > 100 µM | TGI (U251 CNS): > 100 µM | TGI (LOX IMVI melanoma): > 100 µM | TGI (OVCAR-4 ovarian): > 100 µM | TGI (SNB-19 CNS): > 100 µM | TGI (CCRF-CEM leukemia): > 100 µM | TGI (UO-31 renal): > 100 µM | TGI (SW-620 colon): > 100 µM | TGI (OVCAR-3 ovarian): > 100 µM | TGI (HS 578T breast): > 100 µM | TGI (MCF7 breast): > 100 µM | TGI (KM12 colon): > 100 µM | TGI (M14 melanoma): > 100 µM | TGI (A549 NSCLC): > 100 µM | TGI (SF-539 CNS): > 100 µM | TGI (NCI-H522 lung): > 100 µM | TGI (MDA-MB-435): > 100 µM | TGI (COLO 205 colon): > 100 µM | TGI (CAKI-1 renal): > 100 µM | TGI (K-562 leukemia): > 100 µM | TGI (NCI-H226 lung): > 100 µM | TGI (UACC-257 melanoma): > 100 µM | TGI (SNB-75 CNS): > 100 µM | TGI (BT-549 breast): > 100 µM | TGI (RXF 393 renal): > 100 µM | TGI (RXF-631 renal): > 100 µM | TGI (SK-MEL-2 melanoma): > 100 µM | TGI (SK-MEL-5 melanoma): > 100 µM | TGI (SR leukemia): > 100 µM | TGI (HL-60(TB) leukemia): > 77.3 µM | TGI (RPMI-8226 leukemia): > 100 µM | TGI (NCI-H460 lung): > 100 µM | TGI (MDA-N): > 100 µM | TGI (SF-295 CNS): > 100 µM | TGI (IGROV1 ovarian): > 100 µM | TGI (EKVX NSCLC): > 100 µM | TGI (HT29 colon): > 100 µM | TGI (786-0 renal): > 100 µM | TGI (DLD-1 colon): > 100 µM | TGI (SN12C renal): > 100 µM | TGI (SF-268 CNS): > 100 µM | TGI (HCT-116 colon): > 100 µM | TGI (MDA-MB-231 breast): > 100 µM | TGI (MALME-3M melanoma): > 100 µM | TGI (T-47D breast): > 100 µM | TGI (HCT-15 colon): > 100 µM | TGI (MOLT-4 leukemia): > 100 µM | TGI (ACHN renal): > 100 µM

O=c1c2ccccc2nc(-c2ccccc2Cl)n1NCC1(O)OCC(O)C(O)C1O (stereo not drawn)
TGI (TK-10 renal): > 100 µM | TGI (OVCAR-5 ovarian): > 100 µM | TGI (SK-OV-3 ovarian): > 100 µM | TGI (DMS 114 small cell lung): > 100 µM | TGI (LXFL 529 NSCLC): > 100 µM | TGI (NCI-H23 lung): > 100 µM | TGI (UACC-62 melanoma): > 100 µM | TGI (A498 renal): > 100 µM | TGI (KM20L2 colon): > 100 µM | TGI (XF 498 CNS): > 100 µM | TGI (OVCAR-8 ovarian): > 100 µM | TGI (SK-MEL-28 melanoma): > 100 µM | TGI (U251 CNS): > 100 µM | TGI (LOX IMVI melanoma): > 100 µM | TGI (OVCAR-4 ovarian): > 100 µM | TGI (DMS 273 small cell lung): > 100 µM | TGI (SNB-19 CNS): > 100 µM | TGI (CCRF-CEM leukemia): > 100 µM | TGI (UO-31 renal): > 100 µM | TGI (SW-620 colon): > 100 µM | TGI (OVCAR-3 ovarian): > 100 µM | TGI (KM12 colon): > 100 µM | TGI (M14 melanoma): > 100 µM | TGI (M19-MEL melanoma): > 100 µM | TGI (A549 NSCLC): > 100 µM | TGI (SF-539 CNS): > 100 µM | TGI (NCI-H522 lung): > 100 µM | TGI (COLO 205 colon): > 100 µM | TGI (CAKI-1 renal): > 100 µM | TGI (K-562 leukemia): > 100 µM | TGI (UACC-257 melanoma): > 100 µM | TGI (SNB-75 CNS): > 100 µM | TGI (RXF 393 renal): > 100 µM | TGI (RXF-631 renal): > 100 µM | TGI (SK-MEL-2 melanoma): > 100 µM | TGI (SK-MEL-5 melanoma): > 100 µM | TGI (SR leukemia): > 100 µM | TGI (HL-60(TB) leukemia): > 100 µM | TGI (RPMI-8226 leukemia): > 100 µM | TGI (NCI-H460 lung): > 100 µM | TGI (SF-295 CNS): > 100 µM | TGI (SNB-78 CNS): > 100 µM | TGI (EKVX NSCLC): > 100 µM | TGI (HT29 colon): > 100 µM | TGI (786-0 renal): > 100 µM | TGI (SN12C renal): > 100 µM | TGI (SF-268 CNS): > 100 µM | TGI (HCT-116 colon): > 100 µM | TGI (MALME-3M melanoma): > 100 µM | TGI (HCT-15 colon): > 100 µM | TGI (MOLT-4 leukemia): > 100 µM | TGI (ACHN renal): > 100 µM
